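Cultured in 96-well plates, cells were exposed to test compound for 48 hours across five concentrations. The concentration for 50% growth inhibition is given as GI50. TGI: concentration producing complete growth inhibition.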
Tests used:
Test in all cases: NCI anticancer screen, dose series, 48 h
EKVX NSCLC = tested on: EKVX NSCLC
HCT-15 colon = tested on: HCT-15 colon
MDA-MB-435 = tested on: MDA-MB-435
A549 NSCLC = tested on: A549 NSCLC
RXF 393 renal = tested on: RXF 393 renal
UACC-62 melanoma = tested on: UACC-62 melanoma
T-47D breast = tested on: T-47D breast
NCI-H522 lung = tested on: NCI-H522 lung
PC-3 prostate = tested on: PC-3 prostate
HCT-116 colon = tested on: HCT-116 colon
SF-268 CNS = tested on: SF-268 CNS
HOP-92 NSCLC = tested on: HOP-92 NSCLC
SW-620 colon = tested on: SW-620 colon
ACHN renal = tested on: ACHN renal
MDA-MB-231 breast = tested on: MDA-MB-231 breast
UACC-257 melanoma = tested on: UACC-257 melanoma
CAKI-1 renal = tested on: CAKI-1 renal
SK-OV-3 ovarian = tested on: SK-OV-3 ovarian
MCF7 breast = tested on: MCF7 breast
NCI-H226 lung = tested on: NCI-H226 lung
SK-MEL-28 melanoma = tested on: SK-MEL-28 melanoma
DU-145 prostate = tested on: DU-145 prostate
SF-295 CNS = tested on: SF-295 CNS
NCI-H23 lung = tested on: NCI-H23 lung
SF-539 CNS = tested on: SF-539 CNS
NCI/ADR-RES ovarian = tested on: NCI/ADR-RES ovarian
A498 renal = tested on: A498 renal
TK-10 renal = tested on: TK-10 renal
MALME-3M melanoma = tested on: MALME-3M melanoma
HS 578T breast = tested on: HS 578T breast
HL-60(TB) leukemia = tested on: HL-60(TB) leukemia
OVCAR-8 ovarian = tested on: OVCAR-8 ovarian
MOLT-4 leukemia = tested on: MOLT-4 leukemia
OVCAR-3 ovarian = tested on: OVCAR-3 ovarian
NCI-H460 lung = tested on: NCI-H460 lung
SR leukemia = tested on: SR leukemia
RPMI-8226 leukemia = tested on: RPMI-8226 leukemia
HT29 colon = tested on: HT29 colon
IGROV1 ovarian = tested on: IGROV1 ovarian
SK-MEL-5 melanoma = tested on: SK-MEL-5 melanoma
OVCAR-5 ovarian = tested on: OVCAR-5 ovarian
KM12 colon = tested on: KM12 colon
SN12C renal = tested on: SN12C renal
SNB-75 CNS = tested on: SNB-75 CNS
M14 melanoma = tested on: M14 melanoma
LOX IMVI melanoma = tested on: LOX IMVI melanoma
SNB-19 CNS = tested on: SNB-19 CNS
HCC-2998 colon = tested on: HCC-2998 colon
U251 CNS = tested on: U251 CNS
COLO 205 colon = tested on: COLO 205 colon
BT-549 breast = tested on: BT-549 breast
SK-MEL-2 melanoma = tested on: SK-MEL-2 melanoma
786-0 renal = tested on: 786-0 renal
UO-31 renal = tested on: UO-31 renal
MDA-MB-468 breast = tested on: MDA-MB-468 breast

SMILES: O/N=C(\CSc1nnc(-c2c[nH]c3ccccc23)n1-c1ccccc1)c1ccc(Cl)cc1
- GI50 (EKVX NSCLC): 3.21 µM
- TGI (EKVX NSCLC): 19.2 µM
- GI50 (HCT-15 colon): 3.2 µM
- TGI (HCT-15 colon): 13.6 µM
- GI50 (MDA-MB-435): 1.74 µM
- TGI (MDA-MB-435): 3.41 µM
- GI50 (A549 NSCLC): 3.35 µM
- TGI (A549 NSCLC): 16.8 µM
- GI50 (RXF 393 renal): 2.22 µM
- TGI (RXF 393 renal): 6.29 µM
- GI50 (UACC-62 melanoma): 2.62 µM
- TGI (UACC-62 melanoma): 10.1 µM
- GI50 (T-47D breast): 3.6 µM
- TGI (T-47D breast): 31.4 µM
- GI50 (NCI-H522 lung): 3.11 µM
- TGI (NCI-H522 lung): 12.5 µM
- GI50 (PC-3 prostate): 2.31 µM
- TGI (PC-3 prostate): 7.29 µM
- GI50 (HCT-116 colon): 2.92 µM
- TGI (HCT-116 colon): 13.7 µM
- GI50 (SF-268 CNS): 2.11 µM
- TGI (SF-268 CNS): 5.08 µM
- GI50 (HOP-92 NSCLC): 3.84 µM
- TGI (HOP-92 NSCLC): 37.6 µM
- GI50 (SW-620 colon): 3.08 µM
- TGI (SW-620 colon): 16.1 µM
- GI50 (ACHN renal): 3.69 µM
- TGI (ACHN renal): 14.5 µM
- GI50 (MDA-MB-231 breast): 1.87 µM
- TGI (MDA-MB-231 breast): 3.66 µM
- GI50 (UACC-257 melanoma): 4.67 µM
- TGI (UACC-257 melanoma): 87.8 µM
- GI50 (CAKI-1 renal): 2.93 µM
- TGI (CAKI-1 renal): 12.4 µM
- GI50 (SK-OV-3 ovarian): 3.38 µM
- TGI (SK-OV-3 ovarian): 12.4 µM
- GI50 (MCF7 breast): 3.63 µM
- TGI (MCF7 breast): 21.6 µM
- GI50 (NCI-H226 lung): 3.98 µM
- TGI (NCI-H226 lung): 17.6 µM
- GI50 (SK-MEL-28 melanoma): 4.41 µM
- TGI (SK-MEL-28 melanoma): > 100 µM
- GI50 (DU-145 prostate): 2.59 µM
- TGI (DU-145 prostate): 6.32 µM
- GI50 (SF-295 CNS): 3.11 µM
- TGI (SF-295 CNS): 13.4 µM
- GI50 (NCI-H23 lung): 6.51 µM
- TGI (NCI-H23 lung): > 100 µM
- GI50 (SF-539 CNS): 10.2 µM
- TGI (SF-539 CNS): 29.5 µM
- GI50 (NCI/ADR-RES ovarian): 2.95 µM
- TGI (NCI/ADR-RES ovarian): 9.5 µM
- GI50 (A498 renal): 15.4 µM
- TGI (A498 renal): 65.8 µM
- GI50 (TK-10 renal): 3.7 µM
- TGI (TK-10 renal): 17.7 µM
- GI50 (MALME-3M melanoma): 4.99 µM
- TGI (MALME-3M melanoma): 27.5 µM
- GI50 (HS 578T breast): 3.09 µM
- TGI (HS 578T breast): 16.6 µM
- GI50 (HL-60(TB) leukemia): 2.17 µM
- TGI (HL-60(TB) leukemia): 6.34 µM
- GI50 (OVCAR-8 ovarian): 3.72 µM
- TGI (OVCAR-8 ovarian): 15.8 µM
- GI50 (MOLT-4 leukemia): 2.16 µM
- TGI (MOLT-4 leukemia): 5.69 µM
- GI50 (OVCAR-3 ovarian): 4.58 µM
- TGI (OVCAR-3 ovarian): 32.4 µM
- GI50 (NCI-H460 lung): 3.34 µM
- TGI (NCI-H460 lung): 15.7 µM
- GI50 (SR leukemia): 4.74 µM
- TGI (SR leukemia): > 100 µM
- GI50 (RPMI-8226 leukemia): 2.38 µM
- TGI (RPMI-8226 leukemia): 7.29 µM
- GI50 (HT29 colon): 3.04 µM
- TGI (HT29 colon): 11.8 µM
- GI50 (IGROV1 ovarian): 5.35 µM
- TGI (IGROV1 ovarian): 19.8 µM
- GI50 (SK-MEL-5 melanoma): 3.87 µM
- TGI (SK-MEL-5 melanoma): 19.5 µM
- GI50 (OVCAR-5 ovarian): 3.37 µM
- TGI (OVCAR-5 ovarian): 11.4 µM
- GI50 (KM12 colon): 4.72 µM
- TGI (KM12 colon): > 100 µM
- GI50 (SN12C renal): 3.79 µM
- TGI (SN12C renal): 16.3 µM
- GI50 (SNB-75 CNS): 1.68 µM
- TGI (SNB-75 CNS): 5.8 µM
- GI50 (M14 melanoma): 3.16 µM
- TGI (M14 melanoma): 14.1 µM
- GI50 (LOX IMVI melanoma): 1.72 µM
- TGI (LOX IMVI melanoma): 3.12 µM
- GI50 (SNB-19 CNS): 6.89 µM
- TGI (SNB-19 CNS): 45.2 µM
- GI50 (HCC-2998 colon): 4.74 µM
- TGI (HCC-2998 colon): 22.5 µM
- GI50 (U251 CNS): 4.73 µM
- TGI (U251 CNS): 81.2 µM
- GI50 (COLO 205 colon): 4.47 µM
- TGI (COLO 205 colon): 25.9 µM
- GI50 (BT-549 breast): 3.71 µM
- TGI (BT-549 breast): 11.1 µM
- GI50 (SK-MEL-2 melanoma): 3.64 µM
- TGI (SK-MEL-2 melanoma): 17.1 µM
- GI50 (786-0 renal): 7.29 µM
- TGI (786-0 renal): > 100 µM
- GI50 (UO-31 renal): 2.88 µM
- TGI (UO-31 renal): 15.7 µM
- GI50 (MDA-MB-468 breast): 1.72 µM
- TGI (MDA-MB-468 breast): 3.47 µM

Reference: PubChem BioAssay (NCI)
